Measurements published in ChEMBL document CHEMBL4507291 (2021).

What was measured:
[1] = molecular target: Rhodopsin kinase GRK1 (Homo sapiens) (UniProt Q15835)
[2] = molecular target: Casein kinase II subunit alpha (Homo sapiens) (UniProt P68400)
[3] = test system: Tyrosine-protein kinase ABL1 (Homo sapiens), P00519 [F317L]
[4] = molecular target: Mitogen-activated protein kinase kinase kinase 19 (Homo sapiens) (UniProt Q56UN5)
[5] = molecular target: Angiopoietin-1 receptor (Homo sapiens) (UniProt Q02763)
[6] = molecular target: T1, 5-hydroxytryptamine receptor 2C (Homo sapiens) (UniProt P28335); settings: Compound concentration 10.0 uM
T1 sequence (whole entry): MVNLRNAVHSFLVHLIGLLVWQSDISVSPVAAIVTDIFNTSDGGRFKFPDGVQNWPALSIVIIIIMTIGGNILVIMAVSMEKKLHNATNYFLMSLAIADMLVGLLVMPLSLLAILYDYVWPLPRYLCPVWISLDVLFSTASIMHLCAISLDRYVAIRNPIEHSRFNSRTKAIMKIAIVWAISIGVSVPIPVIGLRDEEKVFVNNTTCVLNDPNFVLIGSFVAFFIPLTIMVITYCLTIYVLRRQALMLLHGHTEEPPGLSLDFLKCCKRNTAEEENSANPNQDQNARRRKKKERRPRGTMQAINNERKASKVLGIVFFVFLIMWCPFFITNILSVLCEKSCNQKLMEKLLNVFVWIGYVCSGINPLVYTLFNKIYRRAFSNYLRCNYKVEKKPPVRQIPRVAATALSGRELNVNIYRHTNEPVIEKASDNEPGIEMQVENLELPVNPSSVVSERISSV

[7] = molecular target: Serine/threonine-protein kinase pim-1 (Homo sapiens) (UniProt P11309)
[8] = molecular target: T2, Serine/threonine-protein kinase Chk1 (Homo sapiens) (UniProt O14757)
T2 sequence (whole entry): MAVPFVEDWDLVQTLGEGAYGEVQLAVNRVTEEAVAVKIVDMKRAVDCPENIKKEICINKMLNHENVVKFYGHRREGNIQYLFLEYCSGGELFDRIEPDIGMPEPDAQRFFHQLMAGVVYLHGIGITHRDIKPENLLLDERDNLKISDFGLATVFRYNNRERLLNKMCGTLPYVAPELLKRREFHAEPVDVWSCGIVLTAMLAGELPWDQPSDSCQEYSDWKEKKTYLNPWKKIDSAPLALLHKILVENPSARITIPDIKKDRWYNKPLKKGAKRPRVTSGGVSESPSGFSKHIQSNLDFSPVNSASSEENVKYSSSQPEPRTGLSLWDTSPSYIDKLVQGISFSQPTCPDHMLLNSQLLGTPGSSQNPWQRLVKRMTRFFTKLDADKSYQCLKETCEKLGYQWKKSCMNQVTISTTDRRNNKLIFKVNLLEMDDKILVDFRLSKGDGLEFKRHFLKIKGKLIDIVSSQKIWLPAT

[9] = molecular target: Serine/threonine-protein kinase/endoribonuclease IRE1 (Homo sapiens) (UniProt O75460)
[10] = molecular target: Cyclin-dependent kinase 11B (Homo sapiens) (UniProt P21127)
[11] = molecular target: Myosin-IIIb (Homo sapiens) (UniProt Q8WXR4)
[12] = molecular target: D(4) dopamine receptor (Homo sapiens) (UniProt P21917); settings: Compound concentration 10.0 uM
[13] = molecular target: Calcium/calmodulin-dependent protein kinase type IV (Homo sapiens) (UniProt Q16566)
[14] = molecular target: 5-hydroxytryptamine receptor 1B (Homo sapiens) (UniProt P28222); settings: Compound concentration 10.0 uM
Chain of 5-hydroxytryptamine receptor 1B (Homo sapiens) (P28222 whole entry): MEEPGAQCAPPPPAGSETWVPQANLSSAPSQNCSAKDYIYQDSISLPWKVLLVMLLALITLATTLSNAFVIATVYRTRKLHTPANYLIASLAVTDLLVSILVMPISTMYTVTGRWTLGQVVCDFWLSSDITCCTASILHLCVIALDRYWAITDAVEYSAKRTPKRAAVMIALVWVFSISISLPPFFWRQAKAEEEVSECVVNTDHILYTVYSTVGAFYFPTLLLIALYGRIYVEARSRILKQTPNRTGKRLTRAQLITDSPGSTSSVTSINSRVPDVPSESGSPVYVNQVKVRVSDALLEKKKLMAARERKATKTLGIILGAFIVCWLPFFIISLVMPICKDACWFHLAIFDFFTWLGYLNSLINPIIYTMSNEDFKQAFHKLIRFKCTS

[15] = molecular target: Cyclin-dependent kinase 4 (Homo sapiens) (UniProt P11802)
Chain of Cyclin-dependent kinase 4 (Homo sapiens) (P11802 whole entry): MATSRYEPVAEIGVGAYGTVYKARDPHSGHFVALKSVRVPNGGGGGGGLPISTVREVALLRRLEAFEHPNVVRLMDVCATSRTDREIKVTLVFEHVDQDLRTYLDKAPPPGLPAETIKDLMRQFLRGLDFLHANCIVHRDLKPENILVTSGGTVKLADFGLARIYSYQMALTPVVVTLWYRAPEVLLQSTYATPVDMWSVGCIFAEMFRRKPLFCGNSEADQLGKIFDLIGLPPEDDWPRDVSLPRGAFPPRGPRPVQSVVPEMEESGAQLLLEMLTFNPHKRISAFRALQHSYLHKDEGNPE

[16] = molecular target: Serine/threonine-protein kinase 38-like (Homo sapiens) (UniProt Q9Y2H1)
Chain of Serine/threonine-protein kinase 38-like (Homo sapiens) (Q9Y2H1 2-464 limits assumed): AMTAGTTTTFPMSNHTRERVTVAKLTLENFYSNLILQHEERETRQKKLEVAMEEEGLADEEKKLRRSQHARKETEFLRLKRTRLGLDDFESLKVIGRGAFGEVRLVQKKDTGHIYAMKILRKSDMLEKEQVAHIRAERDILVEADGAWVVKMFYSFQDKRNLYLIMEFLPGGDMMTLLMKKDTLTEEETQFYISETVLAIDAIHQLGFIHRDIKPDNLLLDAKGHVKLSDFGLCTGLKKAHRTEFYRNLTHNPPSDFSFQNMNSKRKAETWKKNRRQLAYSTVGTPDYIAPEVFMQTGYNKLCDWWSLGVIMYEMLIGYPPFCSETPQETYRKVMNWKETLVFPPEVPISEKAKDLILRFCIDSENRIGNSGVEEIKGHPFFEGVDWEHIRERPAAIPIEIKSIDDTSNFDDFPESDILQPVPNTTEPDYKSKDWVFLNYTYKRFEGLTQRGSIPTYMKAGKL

[17] = molecular target: Receptor-interacting serine/threonine-protein kinase 1 (Homo sapiens) (UniProt Q13546)
Chain of Receptor-interacting serine/threonine-protein kinase 1 (Homo sapiens) (Q13546 whole entry): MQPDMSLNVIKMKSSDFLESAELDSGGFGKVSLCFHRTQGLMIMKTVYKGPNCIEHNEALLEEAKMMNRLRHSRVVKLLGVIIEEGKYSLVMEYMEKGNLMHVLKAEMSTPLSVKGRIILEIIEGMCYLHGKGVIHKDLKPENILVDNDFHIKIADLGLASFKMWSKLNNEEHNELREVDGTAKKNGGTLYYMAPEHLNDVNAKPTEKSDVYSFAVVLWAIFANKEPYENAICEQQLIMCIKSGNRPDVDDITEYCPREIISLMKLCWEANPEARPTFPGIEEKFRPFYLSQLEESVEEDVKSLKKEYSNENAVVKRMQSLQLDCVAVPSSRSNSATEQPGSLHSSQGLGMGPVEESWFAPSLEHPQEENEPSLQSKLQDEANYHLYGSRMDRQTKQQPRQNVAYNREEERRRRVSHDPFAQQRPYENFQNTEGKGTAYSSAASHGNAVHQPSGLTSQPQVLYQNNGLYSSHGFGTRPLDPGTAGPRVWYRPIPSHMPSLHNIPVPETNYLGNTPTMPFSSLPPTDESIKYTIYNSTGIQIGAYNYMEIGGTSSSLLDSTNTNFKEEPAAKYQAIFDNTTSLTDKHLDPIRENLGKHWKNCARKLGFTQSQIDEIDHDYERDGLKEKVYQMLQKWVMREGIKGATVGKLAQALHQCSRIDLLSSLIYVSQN

[18] = molecular target: Serine/threonine-protein kinase B-raf (Homo sapiens) (UniProt P15056)
[19] = molecular target: Macrophage-stimulating protein receptor (Homo sapiens) (UniProt Q04912)
[20] = molecular target: Mitogen-activated protein kinase kinase kinase 12 (Homo sapiens) (UniProt Q12852)
[21] = molecular target: Myosin light chain kinase family member 4 (Homo sapiens) (UniProt Q86YV6)
[22] = molecular target: MAP kinase-interacting serine/threonine-protein kinase 2 (Homo sapiens) (UniProt Q9HBH9)
Chain of MAP kinase-interacting serine/threonine-protein kinase 2 (Homo sapiens) (Q9HBH9 whole entry, looked up): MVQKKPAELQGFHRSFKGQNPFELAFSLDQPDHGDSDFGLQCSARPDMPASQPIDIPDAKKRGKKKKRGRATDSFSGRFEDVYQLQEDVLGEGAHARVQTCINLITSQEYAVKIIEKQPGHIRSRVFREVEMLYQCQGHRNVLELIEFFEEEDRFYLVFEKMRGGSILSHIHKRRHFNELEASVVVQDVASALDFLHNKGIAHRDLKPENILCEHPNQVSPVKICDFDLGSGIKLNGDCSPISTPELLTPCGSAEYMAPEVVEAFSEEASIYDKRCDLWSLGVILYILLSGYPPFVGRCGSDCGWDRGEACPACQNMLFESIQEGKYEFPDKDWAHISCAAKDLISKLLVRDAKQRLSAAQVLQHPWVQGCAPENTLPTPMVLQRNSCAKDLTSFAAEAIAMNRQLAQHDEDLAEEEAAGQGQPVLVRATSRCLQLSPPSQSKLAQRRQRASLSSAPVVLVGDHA

[23] = molecular target: Myosin light chain kinase (Homo sapiens) (UniProt Q32MK0)
Chain of Myosin light chain kinase (Homo sapiens) (Q32MK0 whole entry): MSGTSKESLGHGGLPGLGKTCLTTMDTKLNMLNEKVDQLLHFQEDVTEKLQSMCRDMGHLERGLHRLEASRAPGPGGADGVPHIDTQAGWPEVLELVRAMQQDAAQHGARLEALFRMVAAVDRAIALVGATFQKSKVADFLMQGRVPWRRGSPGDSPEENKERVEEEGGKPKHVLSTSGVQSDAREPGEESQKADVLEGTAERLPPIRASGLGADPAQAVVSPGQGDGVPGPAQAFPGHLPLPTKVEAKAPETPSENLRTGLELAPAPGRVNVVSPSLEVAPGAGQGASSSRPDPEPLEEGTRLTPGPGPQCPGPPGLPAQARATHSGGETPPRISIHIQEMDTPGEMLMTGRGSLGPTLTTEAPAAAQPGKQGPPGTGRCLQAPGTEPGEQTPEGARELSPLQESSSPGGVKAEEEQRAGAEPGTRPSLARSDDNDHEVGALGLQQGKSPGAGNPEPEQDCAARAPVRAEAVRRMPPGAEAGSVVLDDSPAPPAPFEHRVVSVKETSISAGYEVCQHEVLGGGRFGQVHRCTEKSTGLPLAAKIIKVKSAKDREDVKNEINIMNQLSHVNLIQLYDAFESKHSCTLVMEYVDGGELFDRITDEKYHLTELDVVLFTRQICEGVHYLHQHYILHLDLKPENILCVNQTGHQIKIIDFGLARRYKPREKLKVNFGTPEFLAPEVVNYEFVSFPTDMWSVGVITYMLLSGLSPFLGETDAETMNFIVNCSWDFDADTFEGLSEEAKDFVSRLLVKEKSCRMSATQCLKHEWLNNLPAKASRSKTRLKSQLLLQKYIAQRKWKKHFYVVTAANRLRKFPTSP

[24] = molecular target: Dual specificity mitogen-activated protein kinase kinase 7 (Homo sapiens) (UniProt O14733)
[25] = Compound concentration 100.0 nM
[26] = Compound concentration 1000.0 nM

Chain of Rhodopsin kinase GRK1 (Homo sapiens) (Q15835 whole entry): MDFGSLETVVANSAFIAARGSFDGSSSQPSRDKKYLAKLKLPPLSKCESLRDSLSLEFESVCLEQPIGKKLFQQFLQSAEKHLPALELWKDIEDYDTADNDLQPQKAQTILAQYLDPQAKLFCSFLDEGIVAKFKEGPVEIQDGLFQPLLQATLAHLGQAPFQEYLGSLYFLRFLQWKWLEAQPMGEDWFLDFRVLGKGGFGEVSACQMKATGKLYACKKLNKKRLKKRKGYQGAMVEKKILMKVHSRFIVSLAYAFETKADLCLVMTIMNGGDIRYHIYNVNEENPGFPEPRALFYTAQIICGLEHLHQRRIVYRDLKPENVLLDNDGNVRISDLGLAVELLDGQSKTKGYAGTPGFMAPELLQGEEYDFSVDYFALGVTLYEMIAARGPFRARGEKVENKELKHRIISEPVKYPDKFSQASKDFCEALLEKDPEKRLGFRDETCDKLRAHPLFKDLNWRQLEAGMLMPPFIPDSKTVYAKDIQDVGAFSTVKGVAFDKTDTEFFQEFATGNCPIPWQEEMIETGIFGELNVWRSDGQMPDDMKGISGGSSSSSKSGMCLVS
Chain of Mitogen-activated protein kinase kinase kinase 19 (Homo sapiens) (Q56UN5 whole entry): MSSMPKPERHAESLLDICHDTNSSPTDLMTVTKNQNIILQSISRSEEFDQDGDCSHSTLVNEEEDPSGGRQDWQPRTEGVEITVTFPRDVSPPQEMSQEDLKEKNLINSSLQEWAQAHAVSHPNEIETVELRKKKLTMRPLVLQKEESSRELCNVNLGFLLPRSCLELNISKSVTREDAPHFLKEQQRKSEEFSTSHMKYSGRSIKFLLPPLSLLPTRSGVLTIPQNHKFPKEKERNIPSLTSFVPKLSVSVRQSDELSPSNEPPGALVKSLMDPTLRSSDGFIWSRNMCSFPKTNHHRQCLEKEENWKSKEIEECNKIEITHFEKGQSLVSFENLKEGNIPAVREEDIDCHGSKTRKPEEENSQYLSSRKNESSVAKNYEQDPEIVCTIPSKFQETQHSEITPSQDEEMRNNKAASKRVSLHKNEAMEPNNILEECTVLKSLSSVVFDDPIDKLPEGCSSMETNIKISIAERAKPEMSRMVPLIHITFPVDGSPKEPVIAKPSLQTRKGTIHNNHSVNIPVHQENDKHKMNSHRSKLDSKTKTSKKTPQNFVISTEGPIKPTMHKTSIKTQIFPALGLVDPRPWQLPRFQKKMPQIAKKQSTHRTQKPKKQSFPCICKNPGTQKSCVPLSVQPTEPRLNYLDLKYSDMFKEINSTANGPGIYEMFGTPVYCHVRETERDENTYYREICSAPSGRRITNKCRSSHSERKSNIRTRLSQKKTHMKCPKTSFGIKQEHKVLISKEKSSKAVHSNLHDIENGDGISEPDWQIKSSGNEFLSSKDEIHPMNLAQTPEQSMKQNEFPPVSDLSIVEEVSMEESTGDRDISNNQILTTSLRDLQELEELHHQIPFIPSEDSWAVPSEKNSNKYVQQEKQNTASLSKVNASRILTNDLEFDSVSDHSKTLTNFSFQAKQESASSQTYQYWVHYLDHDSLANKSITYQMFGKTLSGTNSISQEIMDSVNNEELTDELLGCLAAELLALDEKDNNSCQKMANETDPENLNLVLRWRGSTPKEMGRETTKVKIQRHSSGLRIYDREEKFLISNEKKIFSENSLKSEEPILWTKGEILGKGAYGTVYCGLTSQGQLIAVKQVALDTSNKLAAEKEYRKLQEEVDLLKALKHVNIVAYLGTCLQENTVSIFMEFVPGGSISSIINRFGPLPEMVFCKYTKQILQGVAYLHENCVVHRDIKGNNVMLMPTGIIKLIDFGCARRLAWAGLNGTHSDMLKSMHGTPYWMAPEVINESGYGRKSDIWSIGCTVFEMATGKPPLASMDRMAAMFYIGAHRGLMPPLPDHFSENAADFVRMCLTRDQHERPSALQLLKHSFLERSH

C[C@@H]1CN(c2cc(-c3n[nH]c4ccc(OC5(C)CC5)cc34)ncn2)C[C@H](C)O1 [MLi-2]
inactive: residual activity [1, 25] 83% | residual activity [2, 25] 66% | residual activity [3, 25] 82% | residual activity [4, 25] 84% | residual activity [5, 25] 100% | inhibition [6] 7.65% | residual activity [7, 25] 100% | residual activity [8, 25] 90% | residual activity [9, 25] 79% | residual activity [10, 25] 88% | residual activity [11, 25] 89% | inhibition [12] -4.87% | residual activity [13, 25] 78% | inhibition [14] 1.16% | residual activity [15, 25] 68% | residual activity [16, 25] 85% | residual activity [17, 25] 100% | residual activity [18, 25] 91% | residual activity [19, 25] 100% | residual activity [20, 25] 82% | residual activity [21, 25] 100% | residual activity [22, 25] 74% | residual activity [23, 25] 87% | residual activity [24, 25] 77%

C[C@@H]1CN(c2cc(-c3nn(C)c4ccc(OC5(C)CC5)cc34)ncn2)C[C@H](C)O1 [MLi-2-NC]
inactive: residual activity [1, 26] 100% | residual activity [2, 26] 76% | residual activity [3, 26] 86% | residual activity [4, 26] 68% | residual activity [5, 26] 94% | inhibition [6] 18.7% | residual activity [7, 26] 77% | residual activity [8, 26] 57% | residual activity [9, 26] 69% | residual activity [10, 26] 88% | residual activity [11, 26] 100% | inhibition [12] -2.65% | residual activity [13, 26] 67% | inhibition [14] 7.83% | residual activity [15, 26] 71% | residual activity [16, 26] 72% | residual activity [17, 26] 98% | residual activity [18, 26] 68% | residual activity [19, 26] 100% | residual activity [20, 26] 61% | residual activity [21, 26] 100% | residual activity [22, 26] 67% | residual activity [23, 26] 97% | residual activity [24, 26] 74%
